In ChEMBL document CHEMBL3880409, “Pharmaceutical compositions and their methods of use” (2008):
Calls of active or inactive are those of the source.

Experiments:
[1] = molecular target: T1, Neuronal acetylcholine receptor; alpha4/beta2 (Homo sapiens) (UniProt P17787+P43681); test: Positive allosteric modulation at human alpha4beta2 nAChR expressed in HEK293 cells assessed as potentiation of (3R)-1-pyridin-3-ylpyrrolidin-3-amine-induced calcium flux preincubated for 5 mins followed by agonist addition measured for 3 to 5 mins by FLIPR assay relative to control; assay type: cell-based; set-up: concentration or dose not given beside the values
[2] = molecular target: T1, Neuronal acetylcholine receptor; alpha4/beta2 (Homo sapiens); test: (§1) Positive allosteric modulation at human alpha4beta2 nAChR expressed in HEK293 cells assessed as potentiation of 5-[(2R)-azetidin-2-ylmethoxy]-2-chloropyridine-induced calcium flux preincubated for 5 mins followed by agonist addition measured for 3 to 5 mins by FLIPR assay relative to control; assay type: cell-based; set-up: concentration or dose not given beside the values
Rattus norvegicus [3] = test: Antinociceptive activity in Sprague-Dawley rat assessed as reversal of tight ligation of L5-L6 spinal nerves-induced mechanical allodynia by measuring paw withdrawal threshold at 500 umol/kg, ip measured after 30 mins; assay type: functional
[4] = molecular target: T1, Neuronal acetylcholine receptor; alpha4/beta2 (Homo sapiens); test: Positive allosteric modulation at human alpha4beta2 nAChR expressed in HEK293 cells assessed as potentiation of (1S,5S)-3-(3,6-diaza-bicyclo[3.2.0]hept-3-yl)-quinoline-induced calcium flux preincubated for 5 mins followed by agonist addition measured for 3 to 5 mins by FLIPR assay; assay type: cell-based
[5] = Toxicity in ferret assessed as emesis at 3.5 umol/kg after 30 mins measured for 90 mins; set-up: species or system Mustela putorius furo; settings: in vivo, 1.5 h
[6] = molecular target: T1, Neuronal acetylcholine receptor; alpha4/beta2 (Homo sapiens); test: Positive allosteric modulation at human alpha4beta2 nAChR expressed in HEK293 cells assessed as potentiation of ispronicline-induced calcium flux preincubated for 5 mins followed by agonist addition measured for 3 to 5 mins by FLIPR assay; assay type: cell-based
Rattus norvegicus [7] = test: (§2) Potentiation of 30 umol/kg of (1S,5S)-3-(3,6-diaza-bicyclo[3.2.0]hept-3-yl)-quinoline-induced antinociceptive activity in Sprague-Dawley rat assessed as reversal of tight ligation of L5-L6 spinal nerves-mediated mechanical allodynia by measuring paw withdrawal threshold at 35 umol/kg, ip administered prior to agonist treatment measured after 30 mins; assay type: functional
[8] = molecular target: T1, Neuronal acetylcholine receptor; alpha4/beta2 (Homo sapiens); test: as §1, with “flux at 10 uM” for “flux”; assay type: cell-based
[9] = molecular target: T1, Neuronal acetylcholine receptor; alpha4/beta2 (Homo sapiens); test: Positive allosteric modulation at human alpha4beta2 nAChR expressed in HEK293 cells assessed as potentiation of 2-methyl-3-(2-(S)-pyrrolidinylmethoxy)pyridine-induced calcium flux preincubated for 5 mins followed by agonist addition measured for 3 to 5 mins by FLIPR assay; assay type: cell-based
Rattus norvegicus [10] = test: (§3) Potentiation of 5-[(2R)-Azetidin-2-yl methoxy]-2-chloropyridine-induced antinociceptive activity in ip dosed Sprague-Dawley rat assessed as reversal of tight ligation of L5-L6 spinal nerves-mediated mechanical allodynia by measuring paw withdrawal threshold administered prior to agonist treatment measured after 30 mins; assay type: functional
[11] = molecular target: T1, Neuronal acetylcholine receptor; alpha4/beta2 (Homo sapiens); test: Positive allosteric modulation at human alpha4beta2 nAChR expressed in HEK293 cells assessed as potentiation of (3R)-1-pyridin-3-ylpyrrolidin-3-amine-induced calcium flux at 10 uM preincubated for 5 mins followed by agonist addition measured for 3 to 5 mins by FLIPR assay relative to control; assay type: cell-based
[12] = molecular target: T1, Neuronal acetylcholine receptor; alpha4/beta2 (Homo sapiens); test: Positive allosteric modulation at human alpha4beta2 nAChR expressed in HEK293 cells assessed as potentiation of varenicline-induced calcium flux preincubated for 5 mins followed by agonist addition measured for 3 to 5 mins by FLIPR assay; assay type: cell-based
Rattus norvegicus [13] = test: as §2, with “of 3” for “of 30”; assay type: functional
Rattus norvegicus [14] = test: as §3, with “in” for “in ip dosed”, “threshold at 10 mg/kg, ip” for “threshold”, “mins (reference value: 24%)” for “mins”; assay type: functional
Rattus norvegicus [15] = test: as §3, with “in” for “in ip dosed”, “measuring increase in” for “measuring”, “threshold at 3.5 umol/kg, ip” for “threshold”; assay type: functional, organism-based
[16] = Toxicity in ferret assessed as emesis at 3.5 umol/kg administered 30 mins prior to agonist treatment measured for 90 mins in presence of 5-[(2R)-Azetidin-2-yl methoxy]-2-chloropyridine; set-up: species or system Mustela putorius furo; settings: in vivo, 1.5 h

Compound	Activity [1] [%]	Activity [2] [%]	other results
Fc1cccc(-c2nc(-c3cccnc3)no2)c1F	200 to 400	200 to 400	–
Brc1cncc(-c2nc(-c3cccnc3)no2)c1	120 to 150	120 to 150	–
Oc1cncc(-c2nc(-c3cccnc3)no2)c1	90 to 120	90 to 120	–
N#Cc1cccc(-c2noc(-c3cccnc3)n2)c1	200 to 400	200 to 400	–
CS(=O)(=O)c1cccc(-c2nc(-c3cccnc3)no2)c1	120 to 150	120 to 150	–
c1cc(-c2noc(-c3cccnc3)n2)cc(-c2nnn[nH]2)c1	90 to 120	90 to 120	–
NCC1(CC(=O)O)CCCCC1 [GABAPENTIN]	–	–	Activity (Rattus norvegicus [3]): 58%
Fc1ccc(-c2nc(-c3cccnc3)no2)cc1F	200 to 400	200 to 400	–
N#Cc1cccc(-c2nc(-c3cccnc3)no2)c1	–	–	Activity [4]: Active; Activity [5]: Non-Toxic; Activity [6]: Active; Activity (Rattus norvegicus [7]): 56%; Activity [8]: 200 to 400%; fold change (FC) [8]: 10 to 100; Activity [9]: Active; Activity (Rattus norvegicus [10]): Dose-dependent effect; Activity (Rattus norvegicus [10]; record 2): 33 - 63%; Activity [11]: 200 to 400%; fold change (FC) [11]: 10 to 100; Activity [12]: Active; Activity (Rattus norvegicus [13]): 41%; Activity (Rattus norvegicus [14]): 76%; Activity (Rattus norvegicus [15]): Active; Activity [16]: Non-Toxic
N#Cc1cccc(-c2noc(-c3ccc(F)nc3)n2)c1	150 to 200	150 to 200	–
O=c1ccc(-c2noc(-c3cccnc3)n2)c[nH]1	120 to 150	120 to 150	–
Cc1ccc(-c2noc(-c3cccc(C#N)c3)n2)cn1	150 to 200	150 to 200	–
N#Cc1cccc(-c2noc(-c3ccc(Cl)nc3)n2)c1	150 to 200	150 to 200	–
NS(=O)(=O)c1cccc(-c2nc(-c3cccnc3)no2)c1	200 to 400	200 to 400	–
O=[N+]([O-])c1cccc(-c2nc(-c3cccnc3)no2)c1	200 to 400	200 to 400	–
CC(=O)c1cccc(-c2nc(-c3cccnc3)no2)c1	150 to 200	150 to 200	–
Clc1cc(-c2noc(-c3cccnc3)n2)ccn1	120 to 150	120 to 150	–
c1cncc(-c2noc(-c3cccnc3)n2)c1	200 to 400	200 to 400	–
N#Cc1ccc(-c2nc(-c3cccnc3)no2)cc1	150 to 200	150 to 200	–
